Reference: article PMC2680759, “Non-Invasive Molecular Imaging of Fibrosis Using a Collagen-Targeted Peptidomimetic of the Platelet Collagen Receptor Glycoprotein VI” (PLoS ONE, 2009)
Bridges are numbered along the chain shown (N, C = ends). Where no end group is shown, it is not given here.

Assays:
Conditions in all cases: biotin-peptide 50 µg/mL, microtitration plate, n = 3
fibronectin = fibronectin (Homo sapiens, UniProt P02751); assay: Solid phase assay, fibronectin; type: binding
Experimental: (§1) Biotin-peptides (50 µg.mL^−1) were incubated on microtitration wells, coated with 1 µg of type-I collagen, convulxin, collagen related peptides, bovine fibrinogen, human fibronectin, rat vitronectin, murine laminin or bovine serum albumin. Bound peptides were detected using HRP-coupled extravidin and the HRP substrate O-phenyl-dianisidine.

fibrinogen = molecular target: T1, fibrinogen (Bos taurus, UniProt P02672+P02676+P12799); assay: Solid phase assay, fibrinogen; type: binding, bovine
T1 sequence (P02672 20-615): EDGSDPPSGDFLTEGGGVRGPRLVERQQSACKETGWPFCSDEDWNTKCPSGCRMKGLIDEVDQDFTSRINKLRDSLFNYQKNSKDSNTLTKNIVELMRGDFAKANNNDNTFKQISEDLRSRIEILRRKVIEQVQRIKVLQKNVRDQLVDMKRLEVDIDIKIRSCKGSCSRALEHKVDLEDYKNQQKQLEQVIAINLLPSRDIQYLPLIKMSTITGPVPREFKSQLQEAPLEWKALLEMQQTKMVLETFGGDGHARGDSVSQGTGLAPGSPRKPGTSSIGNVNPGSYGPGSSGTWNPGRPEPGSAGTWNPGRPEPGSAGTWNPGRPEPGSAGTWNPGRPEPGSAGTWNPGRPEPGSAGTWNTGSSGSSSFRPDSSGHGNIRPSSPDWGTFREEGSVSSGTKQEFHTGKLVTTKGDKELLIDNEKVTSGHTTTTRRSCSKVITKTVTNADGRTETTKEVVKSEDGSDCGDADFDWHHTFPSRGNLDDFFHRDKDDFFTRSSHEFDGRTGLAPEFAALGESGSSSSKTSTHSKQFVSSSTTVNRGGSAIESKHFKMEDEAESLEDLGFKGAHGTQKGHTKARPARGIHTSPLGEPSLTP
T1 sequence (P02676 1-468): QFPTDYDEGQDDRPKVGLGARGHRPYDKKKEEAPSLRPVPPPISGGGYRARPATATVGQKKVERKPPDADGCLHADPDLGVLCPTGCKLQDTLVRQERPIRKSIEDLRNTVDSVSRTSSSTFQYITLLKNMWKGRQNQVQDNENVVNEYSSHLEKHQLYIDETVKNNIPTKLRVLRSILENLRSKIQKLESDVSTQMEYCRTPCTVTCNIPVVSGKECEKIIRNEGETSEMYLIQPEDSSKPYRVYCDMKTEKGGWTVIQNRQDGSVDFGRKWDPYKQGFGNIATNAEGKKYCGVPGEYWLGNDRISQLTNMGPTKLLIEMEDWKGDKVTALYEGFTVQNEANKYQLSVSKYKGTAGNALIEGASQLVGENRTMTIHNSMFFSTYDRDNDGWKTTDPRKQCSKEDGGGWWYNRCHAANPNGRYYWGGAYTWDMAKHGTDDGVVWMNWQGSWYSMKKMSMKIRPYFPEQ
T1 sequence (P12799 25-444): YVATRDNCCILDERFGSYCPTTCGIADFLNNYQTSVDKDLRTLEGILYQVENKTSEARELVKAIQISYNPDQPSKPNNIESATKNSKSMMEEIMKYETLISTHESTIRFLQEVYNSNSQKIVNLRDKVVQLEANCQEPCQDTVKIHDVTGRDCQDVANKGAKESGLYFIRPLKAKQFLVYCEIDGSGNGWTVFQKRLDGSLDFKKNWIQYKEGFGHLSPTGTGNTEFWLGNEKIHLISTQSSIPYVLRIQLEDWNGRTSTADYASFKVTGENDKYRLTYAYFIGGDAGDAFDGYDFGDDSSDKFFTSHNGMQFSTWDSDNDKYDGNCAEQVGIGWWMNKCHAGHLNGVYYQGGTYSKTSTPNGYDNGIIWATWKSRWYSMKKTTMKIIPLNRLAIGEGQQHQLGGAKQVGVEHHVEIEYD
Experimental: as §1

[1] = system: collagen related peptide (CRP); assay: Solid phase assay, collagen related peptide; type: binding
Experimental: as §1

type III collagen = molecular target: T2, type III collagen (Homo sapiens, UniProt P02461); assay: Solid phase assay, type III collagen; type: binding
T2 sequence (P02461 154-1221 limits assumed): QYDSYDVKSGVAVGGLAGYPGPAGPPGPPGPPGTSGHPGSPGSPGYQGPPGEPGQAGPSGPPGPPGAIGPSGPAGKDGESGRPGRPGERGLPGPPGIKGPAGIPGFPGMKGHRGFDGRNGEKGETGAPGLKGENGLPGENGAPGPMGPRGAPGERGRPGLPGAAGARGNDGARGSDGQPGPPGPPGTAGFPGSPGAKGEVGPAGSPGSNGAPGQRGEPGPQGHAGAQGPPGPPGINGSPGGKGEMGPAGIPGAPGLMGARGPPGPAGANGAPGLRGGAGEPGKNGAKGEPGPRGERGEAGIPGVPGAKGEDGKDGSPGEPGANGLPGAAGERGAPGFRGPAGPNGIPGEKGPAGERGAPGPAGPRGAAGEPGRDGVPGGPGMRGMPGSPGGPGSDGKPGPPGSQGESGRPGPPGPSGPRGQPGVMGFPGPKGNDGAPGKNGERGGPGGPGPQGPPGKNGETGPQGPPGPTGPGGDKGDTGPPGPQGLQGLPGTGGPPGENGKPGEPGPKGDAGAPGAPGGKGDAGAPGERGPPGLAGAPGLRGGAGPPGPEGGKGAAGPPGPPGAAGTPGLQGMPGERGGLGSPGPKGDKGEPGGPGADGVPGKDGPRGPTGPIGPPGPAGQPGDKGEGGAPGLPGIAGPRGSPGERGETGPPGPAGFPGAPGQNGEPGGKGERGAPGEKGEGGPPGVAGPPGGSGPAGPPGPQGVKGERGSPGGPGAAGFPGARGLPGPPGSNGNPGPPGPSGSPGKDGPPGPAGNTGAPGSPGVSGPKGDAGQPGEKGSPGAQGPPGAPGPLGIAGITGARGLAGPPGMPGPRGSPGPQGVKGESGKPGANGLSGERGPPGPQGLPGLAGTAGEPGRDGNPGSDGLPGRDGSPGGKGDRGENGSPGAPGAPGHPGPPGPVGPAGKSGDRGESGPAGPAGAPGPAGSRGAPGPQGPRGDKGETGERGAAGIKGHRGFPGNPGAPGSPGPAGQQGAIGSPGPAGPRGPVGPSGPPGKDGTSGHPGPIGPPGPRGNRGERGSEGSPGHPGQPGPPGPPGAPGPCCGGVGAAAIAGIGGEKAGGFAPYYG

laminin = laminin (Mus musculus, UniProt P02468+P02469+P19137); assay: Solid phase assay, laminin; type: binding, murine
Experimental: as §1

Sequence of fibronectin (P02751 32-2477): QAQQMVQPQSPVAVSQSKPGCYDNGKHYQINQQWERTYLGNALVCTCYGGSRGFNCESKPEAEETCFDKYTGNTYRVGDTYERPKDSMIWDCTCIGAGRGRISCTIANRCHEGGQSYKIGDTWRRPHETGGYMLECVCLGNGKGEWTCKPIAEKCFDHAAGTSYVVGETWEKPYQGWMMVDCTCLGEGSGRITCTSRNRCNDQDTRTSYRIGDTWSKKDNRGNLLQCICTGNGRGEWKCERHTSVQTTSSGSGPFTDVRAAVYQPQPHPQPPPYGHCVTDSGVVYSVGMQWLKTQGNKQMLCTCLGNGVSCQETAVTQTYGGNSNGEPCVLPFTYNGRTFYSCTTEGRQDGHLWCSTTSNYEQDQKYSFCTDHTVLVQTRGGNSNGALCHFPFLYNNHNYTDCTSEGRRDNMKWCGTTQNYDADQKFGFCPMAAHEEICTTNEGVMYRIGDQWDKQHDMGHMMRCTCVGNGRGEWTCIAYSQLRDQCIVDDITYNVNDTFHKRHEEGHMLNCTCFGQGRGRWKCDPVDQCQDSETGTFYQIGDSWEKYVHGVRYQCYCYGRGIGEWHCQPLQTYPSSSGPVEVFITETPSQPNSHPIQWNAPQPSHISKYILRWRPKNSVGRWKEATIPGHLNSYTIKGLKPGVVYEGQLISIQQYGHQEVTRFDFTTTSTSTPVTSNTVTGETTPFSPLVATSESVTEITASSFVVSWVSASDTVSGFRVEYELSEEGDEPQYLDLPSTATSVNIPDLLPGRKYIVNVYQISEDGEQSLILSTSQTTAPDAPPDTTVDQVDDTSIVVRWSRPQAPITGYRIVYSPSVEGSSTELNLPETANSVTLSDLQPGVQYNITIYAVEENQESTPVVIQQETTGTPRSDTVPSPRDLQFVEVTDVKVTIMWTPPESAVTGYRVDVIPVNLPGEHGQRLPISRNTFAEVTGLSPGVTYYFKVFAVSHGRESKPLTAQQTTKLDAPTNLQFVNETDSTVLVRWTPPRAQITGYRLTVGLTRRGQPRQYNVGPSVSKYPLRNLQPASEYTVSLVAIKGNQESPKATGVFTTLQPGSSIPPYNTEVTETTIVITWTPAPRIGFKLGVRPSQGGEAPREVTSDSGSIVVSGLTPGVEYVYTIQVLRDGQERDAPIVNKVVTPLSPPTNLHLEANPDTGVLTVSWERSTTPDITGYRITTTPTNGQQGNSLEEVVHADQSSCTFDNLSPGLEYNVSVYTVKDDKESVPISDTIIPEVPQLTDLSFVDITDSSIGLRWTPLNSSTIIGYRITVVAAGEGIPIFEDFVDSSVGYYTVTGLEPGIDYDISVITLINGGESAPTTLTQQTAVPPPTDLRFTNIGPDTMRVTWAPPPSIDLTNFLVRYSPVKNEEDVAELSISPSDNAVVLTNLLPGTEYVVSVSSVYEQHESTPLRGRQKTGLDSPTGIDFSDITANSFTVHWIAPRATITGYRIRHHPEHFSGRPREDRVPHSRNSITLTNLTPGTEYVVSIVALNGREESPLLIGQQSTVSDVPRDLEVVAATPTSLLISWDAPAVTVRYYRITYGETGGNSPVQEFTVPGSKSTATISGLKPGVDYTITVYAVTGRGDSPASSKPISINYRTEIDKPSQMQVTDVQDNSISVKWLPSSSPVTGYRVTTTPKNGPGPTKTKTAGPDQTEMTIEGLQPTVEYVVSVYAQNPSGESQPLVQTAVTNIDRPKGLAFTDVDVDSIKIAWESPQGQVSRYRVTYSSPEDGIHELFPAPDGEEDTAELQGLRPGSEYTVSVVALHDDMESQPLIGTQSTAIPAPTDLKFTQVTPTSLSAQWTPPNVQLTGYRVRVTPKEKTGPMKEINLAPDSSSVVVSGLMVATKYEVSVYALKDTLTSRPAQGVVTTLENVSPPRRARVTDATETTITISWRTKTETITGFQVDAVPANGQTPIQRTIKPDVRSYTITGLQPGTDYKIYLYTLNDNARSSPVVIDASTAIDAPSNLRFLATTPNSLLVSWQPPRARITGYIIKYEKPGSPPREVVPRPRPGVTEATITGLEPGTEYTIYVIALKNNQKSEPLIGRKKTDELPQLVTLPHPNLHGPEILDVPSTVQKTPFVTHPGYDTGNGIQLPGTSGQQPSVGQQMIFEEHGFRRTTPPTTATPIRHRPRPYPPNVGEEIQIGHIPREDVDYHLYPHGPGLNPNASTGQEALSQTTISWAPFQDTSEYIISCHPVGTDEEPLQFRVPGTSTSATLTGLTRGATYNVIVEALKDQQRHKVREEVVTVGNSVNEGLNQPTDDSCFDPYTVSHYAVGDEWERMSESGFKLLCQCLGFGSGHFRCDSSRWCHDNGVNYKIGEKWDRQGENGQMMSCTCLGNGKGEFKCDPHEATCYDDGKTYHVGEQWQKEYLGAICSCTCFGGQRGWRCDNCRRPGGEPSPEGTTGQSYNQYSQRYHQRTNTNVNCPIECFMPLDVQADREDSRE

## CSCC[C@@H]1NC(=O)[C@H](C(C)C)NC(=O)[C@H](CCCNC(=N)N)NC(=O)CNC(=O)[C@@H]2CCCN2C(=O)[C@@H](NC(=O)CNC(=O)[C@H](CO)NC(=O)CNC(=O)[C@H](CO)NC(=O)CCCC[C@@H]2SC[C@@H]3NC(=O)N[C@@H]32)CSSC[C@@H](C(N)=O)NC(=O)[C@@H]2CCCN2C(=O)CNC(=O)[C@H](CCC(=O)O)NC(=O)[C@H](CC(=O)O)NC(=O)[C@H](CC(=O)O)NC(=O)CNC(=O)[C@H](CC(C)C)NC(=O)[C@H](Cc2c[nH]cn2)NC(=O)[C@H](CC(C)C)NC(=O)CNC(=O)[C@H](Cc2c[nH]cn2)NC1=O [collagelin]
fibronectin
  Binding to immobilized fibronectin: either to be weak or not to occur at all
fibrinogen
  Binding to immobilized fibrinogen: either to be weak or not to occur at all
[1]
  Binding to immobilized CRP: bound
Type III collagen
  Binding to immobilized type III collagen: bound
laminin
  Binding to immobilized laminin: consistently bound

## SGSGCGPQGARGLTGASAGGPC (disulfide 5-22 (inferred)) [reference compound]
fibronectin
  Binding to immobilized fibronectin: did not bind
fibrinogen
  Binding to immobilized fibrinogen: did not bind
[1]
  Binding to immobilized CRP: did not bind
Type III collagen
  Binding to immobilized type III collagen: did not bind
laminin
  Binding to immobilized laminin: did not bind
